Assays:
Test in all cases: Cell viability drug screen, 12-point dose-response AUC
Assay type in all cases: cell-based, human
SNU16 = SNU16 cells; 72 hours
Description: (§1) An FDA-approved small-molecule pharmacological compound (#L1300) and an anticancer compound for research (#L2000) were purchased from Selecckchem and a 10 mM solution was prepared in DMSO. A total of 1,345 compounds were tested the cell viability of the seven EMT gastric cancer cell lines.
(§2) Cells cultured for cell-based drug assay were inoculated into a 96-well white optical plate (Corning) at 5×10^3 cells per well. After 24 hours after inoculation, a 2.5 MJT (primary screen) or a half-log 12-serial diluent (secondary screen) of the pharmacological compound contained in DMSO is added to the cells with a robot using a BioMek FXp liquid processor (Beckman) to add to the cells at 50 mM. The final drug concentration in the 5 ns range and the DMSO specification control (0.5%) were calculated. The cells were then further incubated at 37° C. in a 5% CO2 incubator for 72 hours prior to measuring cell viability using the extra-GLO assay kit (Promega). The luminescent properties were measured after 15 min incubation at room temperature using a plate stacker equipped with a plate stacker. The normalized viability for the DMSO-based control was measured to generate a cell line-specific 12-point dose-response curve for each pharmacological compound, and then the area under the curve (AUC) was calculated using a trapezoidal method. […] The results of the repeated experiments were averaged to generate AUC values for each cell line for each compound.

SNU1967 = SNU1967 cells; 72 hours
Description: as §1, §2

NCC20 = NCC20 cells; 72 hours
Description: as §1, §2

SNU1750 = SNU1750 cells (SEM subtype); 72 hours
Description: as §1, §2

SNU719 = SNU719 cells; 72 hours
Description: as §1, §2

SK4 = SK4 cells (SEM subtype); 72 hours
Description: as §1, §2

SNU620 = SNU620 cells; 72 hours
Description: as §1, §2

KATO3 = KATO3 cells; 72 hours
Description: as §1, §2

SNU638 = SNU638 cells; 72 hours
Description: as §1, §2

SNU668 = SNU668 cells (SEM subtype); 72 hours
Description: as §1, §2

NCC19 = NCC19 cells; 72 hours
Description: as §1, §2

MKN45 = MKN45 cells (non-SEM subtype); 72 hours
Description: as §1, §2

YCC2 = YCC2 cells; 72 hours
Description: as §1, §2

NCC24 = NCC24 cells; 72 hours
Description: as §1, §2

MKN1 = MKN1 cells; 72 hours
Description: as §1, §2

MKN74 = MKN74 cells; 72 hours
Description: as §1, §2

YCC11 = YCC11 cells (SEM subtype); 72 hours
Description: as §1, §2

SNU1 = SNU1 cells; 72 hours
Description: as §1, §2

YCC3 = YCC3 cells; 72 hours
Description: as §1, §2

SNU216 = SNU216 cells (non-SEM subtype); 72 hours
Description: as §1, §2

MKN28 = MKN28 cells; 72 hours
Description: as §1, §2

OCUM1 = OCUM1 cells; 72 hours
Description: as §1, §2

AGS = AGS cells (non-SEM subtype); 72 hours
Description: as §1, §2

NCC59 = NCC59 cells; 72 hours
Description: as §1, §2

SNU601 = SNU601 cells; 72 hours
Description: as §1, §2

SNU484 = SNU484 cells (SEM subtype); 72 hours
Description: as §1, §2

Hs746T = Hs746T cells (SEM subtype); 72 hours
Description: as §1, §2

NCI_N87 = NCI_N87 cells; 72 hours
Description: as §1, §2

FU97 = test system: FU97; set-up: Average Area Under the Viability Curve (AUC), AUC norm value: scale not given here; conditions: FU97 cells; 72 hours
Description: Cells cultured for cell-based drug assay were inoculated into a 96-well white optical plate (Corning) at 5×10^3 cells per well. After 24 hours after inoculation, a 2.5 MJT (primary screen) or a half-log 12-serial diluent (secondary screen) of the pharmacological compound contained in DMSO is added to the cells with a robot using a BioMek FXp liquid processor (Beckman) to add to the cells at 50 mM. The final drug concentration in the 5 ns range and the DMSO specification control (0.5%) were calculated. The cells were then further incubated at 37° C. in a 5% CO2 incubator for 72 hours prior to measuring cell viability using the extra-GLO assay kit (Promega). The luminescent properties were measured after 15 min incubation at room temperature using a plate stacker equipped with a plate stacker. The normalized viability for the DMSO-based control was measured to generate a cell line-specific 12-point dose-response curve for each pharmacological compound, and then the area under the curve (AUC) was calculated using a trapezoidal method.

| SMILES | Average Area Under the Viability Curve (AUC), AUC norm value (SNU16) | Average Area Under the Viability Curve (AUC), AUC norm value (SNU1967) | Average Area Under the Viability Curve (AUC), AUC norm value (NCC20) | Average Area Under the Viability Curve (AUC), AUC norm value (SNU1750) | Average Area Under the Viability Curve (AUC), AUC norm value (SNU719) | Average Area Under the Viability Curve (AUC), AUC norm value (SK4) | Average Area Under the Viability Curve (AUC), AUC norm value (SNU620) | Average Area Under the Viability Curve (AUC), AUC norm value (KATO3) | Average Area Under the Viability Curve (AUC), AUC norm value (SNU638) | Average Area Under the Viability Curve (AUC), AUC norm value (SNU668) | Average Area Under the Viability Curve (AUC), AUC norm value (NCC19) | Average Area Under the Viability Curve (AUC), AUC norm value (MKN45) | Average Area Under the Viability Curve (AUC), AUC norm value (YCC2) | Average Area Under the Viability Curve (AUC), AUC norm value (NCC24) | Average Area Under the Viability Curve (AUC), AUC norm value (MKN1) | Average Area Under the Viability Curve (AUC), AUC norm value (MKN74) | Average Area Under the Viability Curve (AUC), AUC norm value (YCC11) | Average Area Under the Viability Curve (AUC), AUC norm value (SNU1) | Average Area Under the Viability Curve (AUC), AUC norm value (YCC3) | Average Area Under the Viability Curve (AUC), AUC norm value (SNU216) | other results |
| --- | --- | --- | --- | --- | --- | --- | --- | --- | --- | --- | --- | --- | --- | --- | --- | --- | --- | --- | --- | --- | --- |
| CC[C@]1(O)C[C@H]2CN(CCc3c([nH]c4ccccc34)[C@@](C(=O)OC)(c3cc4c(cc3OC)N(C=O)[C@H]3[C@@](O)(C(=O)OC)[C@H](OC(C)=O)[C@]5(CC)C=CCN6CC[C@]43[C@@H]65)C2)C1 [Vincristine] | −1.522 | −1.3653 | −1.434 | 0 | 5.036 | −1.283 | −0.3792 | 4.8981 | 0.1348 | −1.315 | 5.039 | 2.226 | 2.298 | −3.156 | −1.53 | 0.209 | −1.42 | −0.5253 | 4.6576 | 1.755 | Average Area Under the Viability Curve (AUC), AUC norm value (MKN28): −0.493; Average Area Under the Viability Curve (AUC), AUC norm value (OCUM1): 0.6548; Average Area Under the Viability Curve (AUC), AUC norm value (AGS): −1.75; Average Area Under the Viability Curve (AUC), AUC norm value (NCC59): 3.847; Average Area Under the Viability Curve (AUC), AUC norm value (SNU601): 0.9381; Average Area Under the Viability Curve (AUC), AUC norm value (SNU484): −1.965; Average Area Under the Viability Curve (AUC), AUC norm value (Hs746T): 1.044; Average Area Under the Viability Curve (AUC), AUC norm value (NCI_N87): 1.615; Average Area Under the Viability Curve (AUC), AUC norm value (FU97): −1.115 |
| O=C(Nc1c[nH]nc1-c1nc2ccc(CN3CCOCC3)cc2[nH]1)NC1CC1 [AT9283] | −3.809 | −0.1244 | −2.941 | −1.7502 | 3.019 | −0.4441 | −4.059 | 0.5115 | −0.01142 | 0.6968 | 2.247 | −0.1996 | 0.07527 | −0.6909 | −2.315 | 0.4728 | −1.467 | −3.743 | 0.6619 | 0.5323 | Average Area Under the Viability Curve (AUC), AUC norm value (MKN28): −1.903; Average Area Under the Viability Curve (AUC), AUC norm value (OCUM1): 0; Average Area Under the Viability Curve (AUC), AUC norm value (AGS): −0.9303; Average Area Under the Viability Curve (AUC), AUC norm value (NCC59): 0.5882; Average Area Under the Viability Curve (AUC), AUC norm value (SNU601): 1.648; Average Area Under the Viability Curve (AUC), AUC norm value (SNU484): −1.872; Average Area Under the Viability Curve (AUC), AUC norm value (Hs746T): 0.9084; Average Area Under the Viability Curve (AUC), AUC norm value (NCI_N87): 0.1418 |
| Cc1ccc(C(=O)N(CCCN)[C@@H](c2nc3cc(Cl)ccc3c(=O)n2Cc2ccccc2)C(C)C)cc1 [Ispinesib (SB-715992), Ispinesib] | −1.935 | 1.562 | −0.9939 | 0.2265 | 2.542 | −0.8267 | −1.255 | 2.999 | −0.203 | 0.1001 | 1.111 | 1.833 | 0.7987 | −0.8348 | −1.178 | 0 | −1.381 | −1.68 | 2.007 | 1.801 | Average Area Under the Viability Curve (AUC), AUC norm value (MKN28): −1.956; Average Area Under the Viability Curve (AUC), AUC norm value (OCUM1): 1.297; Average Area Under the Viability Curve (AUC), AUC norm value (AGS): −2.131; Average Area Under the Viability Curve (AUC), AUC norm value (NCC59): 2.6543; Average Area Under the Viability Curve (AUC), AUC norm value (SNU601): −1.371; Average Area Under the Viability Curve (AUC), AUC norm value (SNU484): −0.9509; Average Area Under the Viability Curve (AUC), AUC norm value (Hs746T): 1.046; Average Area Under the Viability Curve (AUC), AUC norm value (NCI_N87): −0.0052 |

Source: US20250129430A1, “HIGH ATP-AFFINITY PROTEIN AS THERAPEUTIC TARGET FOR INTRACTABLE CANCER MOLECULAR SUBTYPES AND INHIBITOR THEREOF” (VeraVerse Co., Ltd., priority 2021, published 2025)
